{"source": "patent US5087726A", "about": "“Carbamate ACAT inhibitors” (Warner-Lambert Company, priority 1990, dated 1992)", "biological_target": "T1, acyl-CoA:cholesterol acyltransferase (ACAT) (Oryctolagus cuniculus, UniProt G1SFD9)", "T1 construct": "tissue preparation containing rabbit intestinal microsomes; from tissue; host or cells: rabbit intestinal microsomes", "T1 sequence (G1SFD9 1-524)": "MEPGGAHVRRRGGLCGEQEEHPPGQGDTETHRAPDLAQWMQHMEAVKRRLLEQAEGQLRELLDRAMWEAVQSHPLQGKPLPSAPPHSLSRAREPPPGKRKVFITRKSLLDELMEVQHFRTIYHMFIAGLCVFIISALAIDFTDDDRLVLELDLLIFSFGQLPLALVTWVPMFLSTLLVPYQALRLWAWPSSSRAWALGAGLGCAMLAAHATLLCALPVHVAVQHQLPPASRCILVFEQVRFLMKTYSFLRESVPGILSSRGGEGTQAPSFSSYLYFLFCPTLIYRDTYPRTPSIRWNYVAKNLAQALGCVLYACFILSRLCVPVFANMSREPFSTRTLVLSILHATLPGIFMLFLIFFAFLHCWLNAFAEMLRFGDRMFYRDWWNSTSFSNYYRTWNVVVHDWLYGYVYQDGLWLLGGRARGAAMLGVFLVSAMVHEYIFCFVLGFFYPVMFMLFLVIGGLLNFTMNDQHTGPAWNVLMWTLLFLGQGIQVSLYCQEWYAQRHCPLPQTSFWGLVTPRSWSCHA", "test": "in vitro ACAT inhibition: radiolabeled cholesterol oleate formed from radiolabeled oleic acid in rabbit intestinal microsomes", "type": "biochemical", "settings": "tissue preparation containing rabbit intestinal microsomes; read-out: IC50 value, i.e. the concentration of test compound required to inhibit 50% expression of the enzyme", "procedure": "The ability of representative compounds of the present invention to inhibit ACAT was measured using an in vitro test more fully described in Field, F. J. and Salone, R. G., Biochemica et Biophysica 712: 557-570 (1982). The test assesses the ability of a test compound to inhibit the acylation of cholesterol by oleic acid by measuring the amount of radiolabeled cholesterol oleate formed from radiolabeled oleic acid in a tissue preparation containing rabbit intestinal microsomes."}
{"smiles": "CCCCCCCCCCCC(=O)N[C@@H](CNC(=O)Oc1c(C(C)C)cccc1C(C)C)c1ccccc1", "note": "[Example 1]", "values": [{"measurement": "IC50", "result": 0.51, "unit": "nM"}]}
